“And” between values parts separate entries of the source, which are not always exact repeats. Equal values may be shown once.

The target in experiment [1] is T1, hSirt4 (Homo sapiens, UniProt Q9Y6E7).
T1 construct: hSirt4(25–314) in pQE30 coding for an N-terminal His6-tag; His6 (N); made in house; host or cells: Escherichia coli CodonPlus(DE3)
T1 sequence (Q9Y6E7 25-314): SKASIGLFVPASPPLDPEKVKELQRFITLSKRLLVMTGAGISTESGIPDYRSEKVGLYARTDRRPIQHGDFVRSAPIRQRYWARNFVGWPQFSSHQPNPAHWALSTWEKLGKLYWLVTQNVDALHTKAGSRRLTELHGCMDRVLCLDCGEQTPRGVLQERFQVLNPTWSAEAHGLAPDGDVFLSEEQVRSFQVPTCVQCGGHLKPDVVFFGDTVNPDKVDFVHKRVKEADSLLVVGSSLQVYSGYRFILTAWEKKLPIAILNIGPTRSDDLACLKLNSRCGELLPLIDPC
Description: HMG-FdL (Fluor-de-Lys-like) de-HMG-ylation assay. The format is biochemical. The note with it: HMG-FdL assay, 1 µM hSirt4, 500 µM HMG-FdL substrate, 500 μM NAD+, 37 °C, 20 min; fluorescence; n = 2; NADH corrected through spiking controls. How it is done: As a convenient and complementary, fluorescence-based alternative to the coupled enzymatic assay with HMG-peptides, we established substrate and assay corresponding to the popular “Fluor-de-Lys” (FdL) deacylation assays. […] We then employed the FdL-like Sirt4 assay for studying the effects of NAM and NADH, which are not compatible with the coupled assay. […] After 20 min, developer solution (2 mM NAM and 10 mg mL^−1 trypsin) in assay buffer was added 1:1 and samples were incubated for 45 min at room temperature. Fluorescence was measures using a FluoDia T70 with excitation wavelength 365 nm and emission wavelength 465 nm.

The subject of a further experiment is other sirtuins. The note with it: cited from earlier work.
For another experiment, the target named is T2, Sirt4 (Homo sapiens, UniProt Q9Y6E7).
T2 construct: hSirt4(25–314) in pQE30 coding for an N-terminal His6-tag; His6 (N); made in house; host or cells: Escherichia coli CodonPlus(DE3)
T2 sequence (Q9Y6E7 25-314): T1 sequence (Q9Y6E7 25-314)
The experiment in a line: MS-based Sirt4 inhibition assay with HMG-CPS1 substrate. The format is biochemical. The note with it: n = 2 (Supplementary Fig. 4b). The protocol: For MS and UV analyzes of deacylation reactions, samples were prepared as described for the coupled continuous assay, stopped by mixing 1:1 with 0.5% TFA after 0 and 60 min, diluted to 20 µM peptide using 0.1% FA, and analyzed by HPLC-separation using a Shimadzu Prominence UFLC (Shimadzu, Duisburg, Germany) coupled to ESI-MS and UV detection. Samples were washed on a Piccolo Proto 200 C4 5 μm 2.5 × 0.5 mm trap column (Higgins Analytical, Mountain View, California) and subsequently subjected to a Jupiter C4 5 μm 300 Å 150 × 1 mm analytical column (Phenomenex, Torrance, California) for reversed phase separation, with 99.9% H2O, 0.1% TFA as buffer A and 99.9% ACN, 0.1% TFA as buffer B. Peptides were eluted over a 20 min gradient from 1 to 55% buffer B, followed by 1 min from 55 to 90% buffer B with 70 µL min^−1 flow-rate. UV-detection was done using a Shimadzu SPD-20A detector at 280 nm. MS analysis was performed by ESI-TOF-MS on an AB Sciex TripleTOF 5600+ mass spectrometer (Sciex, Darmstadt, Germany) with a DuoSpray Ion Source using the following settings: floating voltage of 5500 V and declustering potential of 100 with one TOF experiment summing over four time bins. We detected in a mass range from 300 to 2500 m/z. […]

The next experiment relates to xSirt4. The experiment in a line: Thermal denaturation shift assay. Type of experiment: binding, Xenopus tropicalis. The conditions noted are these: 3 µM xSirt4, SYPRO orange, 20 to 73 °C; n = 2. How it is done:
Thermal shift assays were performed in 96-well PCR plates using 3 µM xSirt4 (32–315) or 3 µM zSirt4 (29–310) and SYPRO orange (Thermo Fisher, Waltham, MA, USA) covered with 15 µL mineral oil. Heating and fluorescence measurements were performed in a FluoDia T70 with 1 K steps from 20 to 73 °C (excitation: 465 nm, emission: 580 nm). The data were analyzed in GraFit (Erithacus Software Ltd, Horley, UK) by nonlinear fitting using a two state model.

In experiment [2] the target is T1, hSirt4. The experiment in a line: Coupled continuous enzymatic assay monitoring NAM release from NAD+ (Sirt4 deacylation). The format is biochemical. The conditions noted are these: hSirt4 wild-type. How it is done: The seven mammalian sirtuins vary in their sequence and acyl preferences[16],[19]. […] We therefore asked whether other acyl modifications would yield deacylation efficiencies expected for a physiologically dominant Sirt4 activity.
(§1) The coupled continuous assay was performed as reported. […] Reactions were monitored in microplates at room temperature for 1 h through absorption measurements at 340 nm in a LAMBDAScan plate reader (MWG Biotech, Ebersberg, Germany).

The test system of a further experiment is sirtuins. The conditions noted are these: cited from earlier work. The text has this:
All sirtuins share NAD^+ as an essential cosubstrate, but the Sirt4 nucleotide binding site differs from those of other isoforms. The Sirt4-loop tightens the entry of the C-site, where the conserved Asp145 recognizes the NAM moiety of NAD^+ [25], and its tip around Pro200 will have to rearrange slightly to allow productive NAD^+ binding (Supplementary Fig. 3c), consistent with a switch function.

A further experiment concerns xSirt4 Delta 198–203. The experiment in a line: Coupled continuous assay, xSirt4 variant. The format is biochemical, Xenopus tropicalis. The conditions noted are these: Sirt4 loop deletion variant (198-203), HMG-CPS1 peptide substrate; n = 2. How it is done:
For xSirt4(32–315) and zSirt4(29–310) eluted from the NiNTA material, the buffer was changed to 50 mM Tris/HCl pH 7.5, 200 mM NaCl, (supplemented with 20% glycerol for xSirt4) in a HiPrep Desalting column and subjected to Senp2-proteolysis for 30 min on ice. The protein was loaded on a HisTrap HP 1 mL column (GE Healthcare) and eluted with 50 mM Tris/HCl pH 7.5, 200 mM NaCl, 30–50 mM imidazole. It was subsequently subjected to gel filtration on a Superdex 75 10/300 GL (xSirt4) or Superdex 200 10/300 GL (zSirt4) column (both GE Healthcare) in 25 mM Tris/HCl pH 7.5, 150 mM NaCl (+20 % glycerol for xSirt4), concentrated in a Microsep concentrator, flash-frozen in liquid nitrogen, and stored at −80 °C. xSirt4 single-site variants were generated using the QuickChange protocol (see Supplementary Table 1 for primer sequences) and verified by DNA sequencing, and the proteins were produced as described for wild-type xSirt4.
as §1

For a further experiment, the system named is xSirt4 Wild-type. The experiment in a line: Coupled continuous assay, xSirt4 wild-type. Type of experiment: biochemical, Xenopus tropicalis. The conditions noted are these: HMG-CPS1 peptide substrate, n = 2. The protocol: The coupled continuous assay was performed as reported. Briefly, assays in 20 mM sodium phosphate buffer pH 7.8 contained 5 µM hSirt4 or 3–5 µM xSirt4, 0.05 mg ml^−1 nicotinamidase, 2 U ml^–1 GDH, 3.3 mM a-ketoglutarate, 0.2 mM NADPH, 10% DMSO, and NAD^+ at 2 mM or as indicated, and substrate peptide at 500 µM or as indicated. Reactions were monitored in microplates at room temperature for 1 h through absorption measurements at 340 nm in a LAMBDAScan plate reader (MWG Biotech, Ebersberg, Germany).

For `NC(=O)C1=CN([C@@H]2O[C@H](COP(=O)(O)OP(=O)(O)OC[C@H]3O[C@@H](n4cnc5c(N)ncnc54)[C@H](O)[C@@H]3O)[C@@H](O)[C@H]2O)C=CC1` [NADH], the IC50 against hSirt4 [1] is 126 ± 12 µM; in the experiment with other sirtuins (other sirtuin isoforms, read-out: IC 50 on other sirtuins), 1300 to 27900 µM and ≥ 1300 µM; against Sirt4 it was 142 ± 54 µM. Moreover, the Ki at other sirtuins (read-out: K i on other sirtuin isoforms) was not below 700 µM.
With `NC(=O)c1ccc[n+]([C@@H]2O[C@H](COP(=O)([O-])OP(=O)(O)OC[C@H]3O[C@@H](n4cnc5c(N)ncnc54)[C@H](O)[C@@H]3O)[C@@H](O)[C@H]2O)c1` [NAD^+], the “Sirt4 stabilization in thermal denaturation shift experiments” value in the experiment with xSirt4 is listed as “significant Sirt4 stabilization”. Further, the “K M (NAD+ titration)” value on hSirt4 [2] is 62 ± 14 µM; with xSirt4 Delta 198–203, 66 ± 9 µM; in the experiment on xSirt4 Wild-type, 70 ± 14 µM. The “K M(NAD+) range reported for sirtuins” value in the experiment on sirtuins is 14 to 600 µM.

The values are drawn from article PMC5686155, “Crystal structures of the mitochondrial deacylase Sirtuin 4 reveal isoform-specific acyl recognition and regulation features” (Nature Communications, 2017).
